Data from PubChem BioAssay AID1918940 (Molecular Pharmacology Branch, DTP, NCI, 2023).

Tested on: NCI-H211 complex spheroid viability
Test: Anticancer human tumor NCI-H211 cell line growth inhibition [LSD1];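 also: luminescent viability read after seven days of drug exposure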;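 as to viability, T/C: 100% = DMSO vehicle control viability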
Conditions: for IC50: curve of first compound; for viability, T/C: stronger effect = lower value
Summary of the method: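 Complex spheroids of tumor cells with HUVEC and human MSCs, exposed to iadademstat combined with other agents. Each agent tested in half-log steps from near clinical Cmax (else 10 microM top), DMSO ≤0.25%.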

[1] = second compound 0.1 µM, first compound 0.00949 µM
[2] = second compound 0.1 µM, first compound 0.03 µM
[3] = second compound 0.1 µM, first compound 0.0949 µM
[4] = second compound 0.1 µM, first compound 0.3 µM
[5] = second compound 0.316 µM, first compound 0.00949 µM
[6] = second compound 0.316 µM, first compound 0.03 µM
[7] = second compound 0.316 µM, first compound 0.0949 µM
[8] = second compound 0.316 µM, first compound 0.3 µM
[9] = second compound 1 µM, first compound 0.00949 µM
[10] = second compound 1 µM, first compound 0.03 µM
[11] = second compound 1 µM, first compound 0.0949 µM
[12] = second compound 1 µM, first compound 0.3 µM
[13] = second compound 3.16 µM, first compound 0.00949 µM
[14] = second compound 3.16 µM, first compound 0.03 µM
[15] = second compound 3.16 µM, first compound 0.0949 µM
[16] = second compound 3.16 µM, first compound 0.3 µM
[17] = second compound 10 µM, first compound 0.00949 µM
[18] = second compound 10 µM, first compound 0.03 µM
[19] = second compound 10 µM, first compound 0.0949 µM
[20] = second compound 10 µM, first compound 0.3 µM

## CCN(c1cc(-c2ccc(CN3CCOCC3)cc2)cc(C(=O)NCc2c(C)cc(C)[nH]c2=O)c1C)C1CCOCC1 + NC1CCC(NC2CC2c2ccccc2)CC1
Second compound 0.1 µM
  IC50: > 3000 nM
Second compound 0.316 µM
  IC50: > 3000 nM
Second compound 1 µM
  IC50: > 3000 nM
Second compound 3.16 µM
  IC50: 3000 nM
Second compound 10 µM
  IC50: < 9.49 nM
[1]
  viability, T/C: 76%
[2]
  viability, T/C: 60.9%
[3]
  viability, T/C: 66.9%
[4]
  viability, T/C: 50.1%
Second compound 0.1 µM, first compound 0.949 µM
  viability, T/C: 56.8%
Second compound 0.1 µM, first compound 3 µM
  viability, T/C: 64.2%
[5]
  viability, T/C: 66.3%
[6]
  viability, T/C: 68.5%
[7]
  viability, T/C: 72.2%
[8]
  viability, T/C: 59.9%
Second compound 0.316 µM, first compound 0.949 µM
  viability, T/C: 55.1%
Second compound 0.316 µM, first compound 3 µM
  viability, T/C: 60%
[9]
  viability, T/C: 60.3%
[10]
  viability, T/C: 63.8%
[11]
  viability, T/C: 55.4%
[12]
  viability, T/C: 63.7%
Second compound 1 µM, first compound 0.949 µM
  viability, T/C: 58.3%
Second compound 1 µM, first compound 3 µM
  viability, T/C: 59.1%
[13]
  viability, T/C: 60%
[14]
  viability, T/C: 48.4%
[15]
  viability, T/C: 54.3%
[16]
  viability, T/C: 49.9%
Second compound 3.16 µM, first compound 0.949 µM
  viability, T/C: 48.7%
Second compound 3.16 µM, first compound 3 µM
  viability, T/C: 54.9%
[17]
  viability, T/C: 40.4%
[18]
  viability, T/C: 33.3%
[19]
  viability, T/C: 30.8%
[20]
  viability, T/C: 26%
Second compound 10 µM, first compound 0.949 µM
  viability, T/C: 21.1%
Second compound 10 µM, first compound 3 µM
  viability, T/C: 23.7%

## Nc1ncn(C2CC(O)C(CO)S2)c(=O)n1 (stereo not given) + NC1CCC(NC2CC2c2ccccc2)CC1
Second compound 0.1 µM
  IC50: < 0.949 nM
Second compound 0.316 µM
  IC50: 1.19 nM
Second compound 1 µM
  IC50: 1.01 nM
Second compound 3.16 µM
  IC50: < 0.949 nM
Second compound 10 µM
  IC50: < 0.949 nM
Second compound 0.1 µM, first compound 0.000949 µM
  viability, T/C: 47.8%
Second compound 0.1 µM, first compound 0.003 µM
  viability, T/C: 27.1%
[1]
  viability, T/C: 8.74%
[2]
  viability, T/C: 3.26%
[3]
  viability, T/C: 1.8%
[4]
  viability, T/C: 1.91%
Second compound 0.316 µM, first compound 0.000949 µM
  viability, T/C: 55.8%
Second compound 0.316 µM, first compound 0.003 µM
  viability, T/C: 26.6%
[5]
  viability, T/C: 12.1%
[6]
  viability, T/C: 3.64%
[7]
  viability, T/C: 2.15%
[8]
  viability, T/C: 1.98%
Second compound 1 µM, first compound 0.000949 µM
  viability, T/C: 51.4%
Second compound 1 µM, first compound 0.003 µM
  viability, T/C: 26.6%
[9]
  viability, T/C: 8.75%
[10]
  viability, T/C: 3.07%
[11]
  viability, T/C: 2.09%
[12]
  viability, T/C: 1.41%
Second compound 3.16 µM, first compound 0.000949 µM
  viability, T/C: 47.7%
Second compound 3.16 µM, first compound 0.003 µM
  viability, T/C: 23.7%
[13]
  viability, T/C: 7.85%
[14]
  viability, T/C: 2.42%
[15]
  viability, T/C: 1.84%
[16]
  viability, T/C: 1.65%
Second compound 10 µM, first compound 0.000949 µM
  viability, T/C: 25.3%
Second compound 10 µM, first compound 0.003 µM
  viability, T/C: 9.03%
[17]
  viability, T/C: 3.09%
[18]
  viability, T/C: 1.41%
[19]
  viability, T/C: 0.7%
[20]
  viability, T/C: 0.58%

## O=C(C=Cn1cnc(-c2cc(C(F)(F)F)cc(C(F)(F)F)c2)n1)NNc1cnccn1 + NC1CCC(NC2CC2c2ccccc2)CC1
Second compound 0.1 µM
  IC50: < 3.16 nM
Second compound 0.316 µM
  IC50: < 3.16 nM
Second compound 1 µM
  IC50: < 3.16 nM
Second compound 3.16 µM
  IC50: < 3.16 nM
Second compound 10 µM
  IC50: < 3.16 nM
Second compound 0.1 µM, first compound 0.00316 µM
  viability, T/C: 33.4%
Second compound 0.1 µM, first compound 0.01 µM
  viability, T/C: 20.6%
Second compound 0.1 µM, first compound 0.0316 µM
  viability, T/C: 11.6%
Second compound 0.1 µM, first compound 0.1 µM
  viability, T/C: 6.71%
Second compound 0.1 µM, first compound 0.316 µM
  viability, T/C: 2.42%
Second compound 0.1 µM, first compound 1 µM
  viability, T/C: 1.48%
Second compound 0.316 µM, first compound 0.00316 µM
  viability, T/C: 40.1%
Second compound 0.316 µM, first compound 0.01 µM
  viability, T/C: 23.5%
Second compound 0.316 µM, first compound 0.0316 µM
  viability, T/C: 11.2%
Second compound 0.316 µM, first compound 0.1 µM
  viability, T/C: 6.77%
Second compound 0.316 µM, first compound 0.316 µM
  viability, T/C: 2.16%
Second compound 0.316 µM, first compound 1 µM
  viability, T/C: 8.93%
Second compound 1 µM, first compound 0.00316 µM
  viability, T/C: 41.4%
Second compound 1 µM, first compound 0.01 µM
  viability, T/C: 21.7%
Second compound 1 µM, first compound 0.0316 µM
  viability, T/C: 9.68%
Second compound 1 µM, first compound 0.1 µM
  viability, T/C: 5.65%
Second compound 1 µM, first compound 0.316 µM
  viability, T/C: 2.43%
Second compound 1 µM, first compound 1 µM
  viability, T/C: 1.5%
Second compound 3.16 µM, first compound 0.00316 µM
  viability, T/C: 32.9%
Second compound 3.16 µM, first compound 0.01 µM
  viability, T/C: 22.1%
Second compound 3.16 µM, first compound 0.0316 µM
  viability, T/C: 11%
Second compound 3.16 µM, first compound 0.1 µM
  viability, T/C: 5.74%
Second compound 3.16 µM, first compound 0.316 µM
  viability, T/C: 2.43%
Second compound 3.16 µM, first compound 1 µM
  viability, T/C: 1.51%
Second compound 10 µM, first compound 0.00316 µM
  viability, T/C: 24.4%
Second compound 10 µM, first compound 0.01 µM
  viability, T/C: 15.7%
Second compound 10 µM, first compound 0.0316 µM
  viability, T/C: 7.59%
Second compound 10 µM, first compound 0.1 µM
  viability, T/C: 3.68%
Second compound 10 µM, first compound 0.316 µM
  viability, T/C: 1.66%
Second compound 10 µM, first compound 1 µM
  viability, T/C: 1.3%
